Experimental data from patent publication US12404332B2, “Methods for diagnosing and treating cancers” (Research Development Foundation, priority 2020, dated 2025).

Columns and labels:
B16 tumors = experiment: B16 tumor challenge in mice treated with chlorambucil; format: in vivo, mouse
Excerpt: Mice and in vivo treatments: Wild-type (WT) C57BL/6 mice NSG were purchased from Jackson Labs (Bar Harbor, ME), bred in our animal facility and used at 7-20 weeks old. All mice were given ad libitum water and food and housed under specific pathogen-free conditions. Mice used here were matched for sex and age in each experiment. 1×10^5 control or PD-L1^KOB16 cells were given subcutaneously (SQ, both sexes). 4×10^6 control or PD-L1^lo ID8agg cells in log growth phase were given intraperitoneally (females only). B16 tumor growth was measured with Vernier calipers and volume was calculated as (length×width^2)/2. Intraperitoneal ID8agg tumor growth was determined by IVIS Lumina Imaging System (Perkin Elmer; Waltham, MA) 15 minutes after i.p. injection of 3 mg of PBS-dissolved d-luciferin K+ (Gold Biotechnology; St. Louis, MO) with 30 second exposures, medium binning, and F/stop=1. Identical regions of interest were drawn over each subject's abdomen and average radiance (photons/see/cm2/sr) was quantified with Living Image software version 4.2. Body weight was measured every week for PD-L1^lo ID8agg mice as a surrogate for tumor growth, and tumors were weighed at end-experiment in confirmation. Survival was determined as >1500 mm^3 for SQ tumors and distress or >20% mouse weight gain for PD-L1^lo ID8agg tumors. […]

ID8agg cells = experiment: Tumor-initiating cell (TIC) flow cytometry, ID8agg cells; format: cell-based, mouse
PD-L1 in ID8agg cells = experiment: PD-L1 mRNA (RT-qPCR) in ID8agg cells; format: cell-based, mouse
Procedure: FIGS. 39A-C: CAMB reduces PD-L1 through ubiquitination. FIG. 39A, RT-qPCR for PD-L1 mRNA in OVCAR5 and ID8agg cells treated with (+) or without (−) chlorambucil for 48 hours. (n=4). FIG. 39B, Western blot for PD-L1 protein in OVCAR5 cells with (+) or without (−) MG132 for 6 or 20 hours. (upper panel). PD-L1 expression in OVCAR5 cells treated with chlorambucil 48 hours and/or MG132 for 6 hours (lower panel). FIG. 39C, Ubiquitinated PD-L1 was immunoprecipitated (IP) and subjected to Western blot analysis with anti-ubiquitin (Ub) antibody. Cells were treated with chlorambucil for indicated times prior to ubiquitination analysis.
Quantitative Real-Time Reverse Transcriptase Polymerase Chain Reaction: Total RNA was isolated from homogenized whole lung tissue with Trizol reagent (Invitrogen) according to manufacturer instructions. Subsequently, cDNA was synthesized with 1-2 μg of total RNA using the, SuperScript III reverse transcriptase (Invitrogen). Quantitative PCR (qPCR) was conducted using the Bio-Rad Real-Time PCR System (Applied Biosystems), amplified with transcript-specific primers with SYBR Green (Thermo Scientific), according to manufacturer instructions. Mouse primers were: Tyr, 5′-[…]-3′ (SEQ ID NO: 1) and 5′-[…]-3′ (SEQ ID NO: 2); gp100, 5′-[…]-3′ (SEQ ID NO: 3) and 5′-ID NO: 4); Trp-2, 5′-[…]-3′ (SEQ […]-3′ (SEQ ID NO: 5) and 5′-[…] […]

PD-L1 = experiment: Tumor cell PD-L1 depletion by drugs (flow cytometry, immunoblot); format: cell-based, human and mouse
Procedure: High throughput Screening: B16 PD-L1 RFP cells were treated with 2.5 and 10 μM compounds from the Prestwick and LOPAC Libraries for 48 hours using the Agilent Bravo liquid pipetting platform. Then, cells were washed with PBS, and fixed with 4% paraformaldehyde (Electron Microscopy Sciences, Hatsfield, PA, Cat 15714S) and labeled with 2 μg/ml DAPI, (Molecular Probes, Cat D1306) and 1 μg/ml Cell Mask-Blue (Invitrogen, Cat. H32720). Plates were then imaged using the Operetta High Content Imaging System, Perkin Elmer, Waltham (DAPI and Cell Mask Blue, Ex 360-400, Em 410-480), and the RFP channels (Ex 520-550, Em 560-630) channels. Agents effecting ≥2-fold PD-L1 reduction in the RFP reporter without loss of ≥20% cell viability were candidate PD-L1 depletion agents.
Flow cytometry: Mice were sacrificed by cervical dislocation after induction of deep isoflurane anesthesia. ID8agg tumors were collected and cells were stained as described (Derup et al., 2020) using LSR II hardware and analyzed by FACS Diva (BD Bioscience) or Flow Jo software (Flow Jo, LLC). Anti-mouse (clone 10F.9G2) and human (clone 29E.2A3) PD-L1 [both PE/Cy7, Cat #124314 (mouse) 329718 (human)] were matched with isotype control. Apoptosis assessment used Annexin V and propidium iodide (Thermo Scientific) per manufacturer instruction.
Western blotting and immunoprecipitation: To prepare whole cell lysates, cells were harvested and lysed in RIPA (radioimmunoprecipitation assay) buffer plus 1 mM phenylmethylsulphonyl fluoride and Halt protease/phosphatase inhibitor cocktail (Thermo Scientific) at 4° C. Protein concentrations were measured by BCA Protein Assay Kit (Thermo Scientific). Protein was run on precast 4-15% sodium dodecyl sulfate polyacrylamide gels (Bio-Rad), transferred to polyvinylidene fluoride membranes (GE Water and Process Technologies), and then blocked in 5% non-fat milk for 1 hour at room temperature. The membranes were then incubated with 1:1000 diluted primary antibodies against indicated proteins (Cell Signaling). Specific antibody binding was detected by chemiluminescence using Western Lightening Plus regent (Perkin Elmer). Cells for (co) immunoprecipitation experiments were seeded in 15-cm dishes and cultured as described, using 6 million cells per immunoprecipitation reaction. For protein ubiquitination, cells were lysed in denaturing buffer (50 mM Tris-HCl, 0.5 mM EDTA and 1% SDS) followed by heating at 95° C. for 10 minutes and then quenched with 9 volumes of quenching buffer (0.5% Triton X-100, 20 mM Tris-HCl (pH 8.0), 137 mM NaCl, 10% glycerol, 2 mM EDTA). Protease inhibitor cocktail (Roche) was added fresh to all buffers. Cell lysates were incubated on a rotator for 30 minutes at 4° C., and then centrifuged at 20,000 g for 15 minutes at 4° C. Supernatants were subsequently incubated with anti-PD-L1 antibody overnight and processed using Dynabeads Protein G for Immunoprecipitation (Thermo Fisher Scientific). The final eluate was processed and Western blotting was performed.

O=C(O)CCCc1ccc(N(CCCl)CCCl)cc1 [chlorambucil]
treatment efficacy in PD-L1^KO B16 challenge (B16 tumors; WT mice): significantly reduced
treatment of tumors (B16 tumors; severely immunodeficient NSG mice, B16): effectively treated both
CD44^+CD133^+CD24^+ TIC population (ID8agg cells): significantly reduced
PD-L1 mRNA (PD-L1 in ID8agg cells): significantly reduced
effect on cell viability (PD-L1; over 2-3 days, human and mouse tumor lines): little effect on cell viability
expression of PD-L1 in cancer cells (PD-L1; summary statement): decreased expression of PD-L1
